# In publication PMC5428354, “Screening of a natural compound library identifies emodin, a natural compound from Rheum palmatum Linn that inhibits DPP4” (PeerJ, 2017):
# Where “and” joins values, the source holds several entries; their conditions need not be identical. Equal values may be shown once. Where a name gives a salt, the structure may show the parent alone. Read-outs that look alike come from different tables or passages of the source.
# What was measured:
# Format in all cases: biochemical
# DPP4 = DPP4 (Homo sapiens, UniProt P27487); test: DPP4 activity assay (DPP4 inhibitor screening assay kit, Cayman); parameters: purchased Cayman Chemical, Ann Arbor, MI, USA; details: for Ki: DPP4; for Ki / IC50: means ± SE; for IC50: in vitro, read-out: IC50 of DPP4 Inhibition; for remaining activity at 10 µM: 0.5 h;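 on all read-outs here: fluorescence read at excitation 360 nm and emission 460 nm after the enzyme reaction ran 30 min at 37 °C in a 96-well plate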
# DPP9 = biological target: T1, DPP9 (Homo sapiens, UniProt Q86TI2); test: DPP9 activity assay (BPS Bioscience kit); details: 100 µM, Well #1-#3; for DPP9 activity: DMSO = Ctrl;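 on DPP9 assay, Emission (450 nm): 20 ng DPP9 per 100 µl reaction with DPP substrate 1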
# T1 construct: purchased BPS Bioscience 800209
# DPP8 = DPP8 (Homo sapiens, UniProt Q6V1X1); test: DPP8 activity assay (BPS Bioscience kit); details: for DPP8 assay, Emission (450 nm) / DPP8 activity: 100 µM, Exp #1-#5; for DPP8 activity: DMSO = Ctrl;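 on DPP8 assay, Emission (450 nm): fluorescence read with excitation at 365 nm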
# Experimental: A DPP8 assay kit was purchased from BPS Bioscience (Cat# 800208), and the assay protocol was followed to test for inhibitory activity on DPP8. Briefly, DPP substrate 1 was diluted to make a 100 µM stock solution, and DPP8 protein was diluted in DPP assay buffer to 2 ng/µl (20 ng/reaction). For the tested compounds, 10 µl of diluted DPP8 protein, 5 µl of diluted DPP substrate 1, 84 µl of DPP assay buffer and 1 µl of inhibitor were addedinto the assay system for a total volume of 100 µl. The reaction mixtures were prepared in duplicate on a 96-well plate and incubated at room temperature for 10 min. […]
# [1] = 10 µM, control mean 100.0, Figure 1A raw data, read-out: DPP4 activity in library screen, Exp 1
# [2] = 10 µM, control mean 100.0, Figure 1A raw data, read-out: DPP4 activity in library screen, Exp 2
# [3] = 10 µM, control mean 100.0, Figure 1A raw data, read-out: DPP4 activity in library screen, Exp 3
# [4] = 10 µM, control mean 100.0, mean of Exp 1-3, read-out: DPP4 activity in library screen, Mean
# [5] = 10 µM, control mean 100.0, Figure 1A raw data
# [6] = 10 µM, control mean 100.0, mean of Exp 1-3
# [7] = read-out: DPP4 activity in library screen, Exp 1, 10 µM, control mean 100.0, Figure 1A raw data
# [8] = read-out: DPP4 activity in library screen, Exp 2, 10 µM, control mean 100.0, Figure 1A raw data
# [9] = read-out: DPP4 activity in library screen, Exp 3, 10 µM, control mean 100.0, Figure 1A raw data
# [10] = read-out: DPP4 activity in library screen, Mean, 10 µM, control mean 100.0, mean of Exp 1-3
# Sequence of DPP4 (P27487 whole entry): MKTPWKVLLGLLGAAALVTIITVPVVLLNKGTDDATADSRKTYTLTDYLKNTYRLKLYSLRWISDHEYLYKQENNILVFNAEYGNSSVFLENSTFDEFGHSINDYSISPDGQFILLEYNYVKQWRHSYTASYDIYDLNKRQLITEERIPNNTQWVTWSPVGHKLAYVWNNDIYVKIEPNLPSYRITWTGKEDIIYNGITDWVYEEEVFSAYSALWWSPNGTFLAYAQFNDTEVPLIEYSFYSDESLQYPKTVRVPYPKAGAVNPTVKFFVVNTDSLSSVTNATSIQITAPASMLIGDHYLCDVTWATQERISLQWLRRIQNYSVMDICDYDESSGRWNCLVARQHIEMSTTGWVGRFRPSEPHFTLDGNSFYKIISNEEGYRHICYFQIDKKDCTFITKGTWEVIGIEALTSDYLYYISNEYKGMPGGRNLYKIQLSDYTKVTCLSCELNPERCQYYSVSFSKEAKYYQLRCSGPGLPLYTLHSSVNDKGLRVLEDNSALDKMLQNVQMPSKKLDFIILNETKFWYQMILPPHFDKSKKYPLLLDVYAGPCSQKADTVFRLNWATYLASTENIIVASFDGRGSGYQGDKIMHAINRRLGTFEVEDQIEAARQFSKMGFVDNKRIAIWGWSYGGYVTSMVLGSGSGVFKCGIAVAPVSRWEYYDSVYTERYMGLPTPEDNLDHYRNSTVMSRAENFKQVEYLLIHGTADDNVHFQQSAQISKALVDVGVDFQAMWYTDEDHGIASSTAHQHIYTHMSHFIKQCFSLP
# T1 sequence (Q86TI2 whole entry): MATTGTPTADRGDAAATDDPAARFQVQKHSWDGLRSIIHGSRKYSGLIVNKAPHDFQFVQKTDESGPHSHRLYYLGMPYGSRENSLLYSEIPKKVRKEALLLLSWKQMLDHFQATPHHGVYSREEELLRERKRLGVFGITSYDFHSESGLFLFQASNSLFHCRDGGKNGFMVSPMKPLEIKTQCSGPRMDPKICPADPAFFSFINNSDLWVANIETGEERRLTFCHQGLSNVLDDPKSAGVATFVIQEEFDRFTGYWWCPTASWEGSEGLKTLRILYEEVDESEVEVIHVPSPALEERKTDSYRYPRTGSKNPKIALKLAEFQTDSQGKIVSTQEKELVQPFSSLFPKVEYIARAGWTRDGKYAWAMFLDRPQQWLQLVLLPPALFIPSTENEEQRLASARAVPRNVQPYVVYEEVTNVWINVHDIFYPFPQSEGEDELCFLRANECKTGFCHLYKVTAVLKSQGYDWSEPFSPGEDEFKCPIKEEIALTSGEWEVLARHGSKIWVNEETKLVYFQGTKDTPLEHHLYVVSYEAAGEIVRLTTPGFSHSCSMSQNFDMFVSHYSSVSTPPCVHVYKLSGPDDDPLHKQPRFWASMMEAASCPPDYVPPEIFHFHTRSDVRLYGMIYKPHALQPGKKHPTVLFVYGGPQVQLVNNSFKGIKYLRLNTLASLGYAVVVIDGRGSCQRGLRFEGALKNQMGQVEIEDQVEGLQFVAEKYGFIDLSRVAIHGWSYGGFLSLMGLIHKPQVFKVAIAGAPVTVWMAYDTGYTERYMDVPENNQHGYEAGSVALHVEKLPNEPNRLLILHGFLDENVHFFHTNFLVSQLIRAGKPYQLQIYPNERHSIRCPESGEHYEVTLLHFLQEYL
# Sequence of DPP8 (Q6V1X1 whole entry): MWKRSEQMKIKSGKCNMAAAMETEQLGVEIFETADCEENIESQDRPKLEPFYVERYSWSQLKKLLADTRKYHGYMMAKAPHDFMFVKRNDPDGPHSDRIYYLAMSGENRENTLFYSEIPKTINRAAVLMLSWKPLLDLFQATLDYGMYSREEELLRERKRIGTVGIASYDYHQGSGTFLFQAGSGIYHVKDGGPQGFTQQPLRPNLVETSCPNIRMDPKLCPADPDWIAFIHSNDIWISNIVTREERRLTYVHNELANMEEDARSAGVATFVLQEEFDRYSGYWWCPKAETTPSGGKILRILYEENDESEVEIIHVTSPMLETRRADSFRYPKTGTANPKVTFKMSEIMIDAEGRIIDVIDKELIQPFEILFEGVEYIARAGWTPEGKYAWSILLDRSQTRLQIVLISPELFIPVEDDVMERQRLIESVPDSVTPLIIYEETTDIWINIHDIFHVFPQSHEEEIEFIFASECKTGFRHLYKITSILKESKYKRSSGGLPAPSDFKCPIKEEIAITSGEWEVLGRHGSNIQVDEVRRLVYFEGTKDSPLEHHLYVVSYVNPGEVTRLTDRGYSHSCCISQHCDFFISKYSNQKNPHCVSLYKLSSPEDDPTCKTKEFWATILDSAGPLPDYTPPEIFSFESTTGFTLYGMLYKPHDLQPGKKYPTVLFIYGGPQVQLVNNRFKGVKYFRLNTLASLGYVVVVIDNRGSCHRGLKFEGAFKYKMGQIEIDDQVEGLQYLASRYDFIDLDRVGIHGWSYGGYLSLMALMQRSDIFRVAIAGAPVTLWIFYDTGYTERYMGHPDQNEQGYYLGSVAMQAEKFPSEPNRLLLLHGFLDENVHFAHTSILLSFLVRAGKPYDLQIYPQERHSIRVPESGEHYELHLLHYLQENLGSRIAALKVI
Compound,remaining activity at 10 µM (DPP4; [1]) [%],remaining activity at 10 µM (DPP4; [2]) [%],remaining activity at 10 µM (DPP4; [3]) [%],remaining activity at 10 µM (DPP4; [4]) [%],other results
O=C1c2cccc(O)c2C(=O)c2c(O)cc(CO)cc21 [Aloe-emodin],–,–,–,–,"Ki (DPP4): 2.37 ± 0.62 µM; IC50 (DPP4): 16 ± 4.24 µM; DPP9 assay, Emission (450 nm) (DPP9): 45255 and 48696 and 44751; DPP9 activity (DPP9): 92.9 % of Ctrl and 100.0 % of Ctrl and 91.9 % of Ctrl; DPP8 assay, Emission (450 nm) (DPP8): 28333 and 31255 and 28705 and 40933 and 31387; DPP8 activity (DPP8): 59.6 % of Ctrl and 101.9 % of Ctrl and 112.4 % of Ctrl and 103.3 % of Ctrl and 77.7 % of Ctrl"
Cc1cc(O)c2c(c1)C(=O)c1cccc(O)c1C2=O [Chrysophanol],64.4,60,75,66.5,"IC50 (DPP4): > 100 µM; DPP9 assay, Emission (450 nm) (DPP9): 43157 and 48875 and 45154; DPP9 activity (DPP9): 88.6 % of Ctrl and 100.3 % of Ctrl and 92.7 % of Ctrl; DPP8 assay, Emission (450 nm) (DPP8): 27057 and 31330 and 23865 and 45793 and 40995; DPP8 activity (DPP8): 77.8 % of Ctrl and 97.3 % of Ctrl and 112.7 % of Ctrl and 85.8 % of Ctrl and 86.9 % of Ctrl"
O=C(O)c1cc(O)c2c(c1)C(=O)c1cccc(O)c1C2=O [Rhein],–,–,–,–,"Ki (DPP4): 3.42 ± 0.53 µM; IC50 (DPP4): 23.1 ± 3.57 µM; DPP9 assay, Emission (450 nm) (DPP9): 41706 and 44766 and 43536; DPP9 activity (DPP9): 85.6 % of Ctrl and 91.9 % of Ctrl and 89.4 % of Ctrl; IC50 (DPP8): > 100 µM; DPP8 activity (DPP8): 54.9 % of Ctrl and 47.9 % of Ctrl and 41.4 % of Ctrl and 44.7 % of Ctrl and 72.6 % of Ctrl; activity against DPP8 (DPP8; tested at 100 µM): very weak activity"
O=C(O)C1=C[C@@H](O)[C@@H](O)[C@H](O)C1 [Shikimic Acid],87.3,80.7,84.9,84.3,–
COc1cc(C2Oc3cc([C@H]4Oc5cc(O)cc(O)c5C(=O)[C@@H]4O)ccc3OC2CO)ccc1O (stereo partly drawn) [Silibinin],65.1,76.8,67.3,69.7,–
COC1=C[C@@H]2[C@@H]3Cc4ccc(OC)c(O)c4[C@]2(CCN3C)CC1=O [Sinomenine],–,–,–,–,"remaining activity at 10 µM (DPP4; read-out: DPP4 activity in library screen, Exp 1): 103%; remaining activity at 10 µM (DPP4; read-out: DPP4 activity in library screen, Exp 2): 93.4%; remaining activity at 10 µM (DPP4; read-out: DPP4 activity in library screen, Mean): 104%"
O=C([O-])C(O)Cc1ccc(O)c(O)c1.[Na+] (stereo not drawn) [Sodium Danshensu],–,–,–,–,"DPP4 activity in library screen, Exp 1 (DPP4; [5]): 95.8; DPP4 activity in library screen, Exp 2 (DPP4; [5]): 90.3; DPP4 activity in library screen, Exp 3 (DPP4; [5]): 90.2; DPP4 activity in library screen, Mean (DPP4; [6]): 92.1"
O=C1C=CC[C@@H]2[C@H]3CCCN4CCC[C@@H](CN12)[C@@H]34 [Sophocarpine],96.7,109,111,105,–
OC[C@@H](O)[C@@H](O)[C@H](O)[C@@H](O)CO [Sorbitol],94.5,91.5,90.4,92.1,–
CNCC(O)c1ccc(O)cc1 (stereo not drawn) [Synephrine],98.7,76.9,87.7,87.8,–
COc1ccc(-c2cc(=O)c3c(OC)c(OC)c(OC)c(OC)c3o2)cc1 [Tangeretin],75.6,80.1,66.2,74,–
Cc1coc2c1C(=O)C(=O)c1c-2ccc2c1CCCC2(C)C [Tanshinone IIA],50.8,56.6,69.7,59,–
Cc1coc2c1C(=O)C(=O)c1c-2ccc2c(C)cccc12 [Tanshinone I],56.8,59.3,58.1,58.1,–
"O=C1c2c(O)cc(O)cc2OC(c2ccc(O)c(O)c2)C1O (stereo not drawn) [Taxifolin (Dihydroquercetin), Taxifolin]",93.8,83.2,67.9,81.6,–
COc1ccc(CC2NCCc3cc(OC)c(OC)cc32)cc1OC.Cl (stereo not drawn) [Tetrahydropapaverine HCl],–,–,–,–,"DPP4 activity in library screen, Exp 1 (DPP4; [5]): 92.5; DPP4 activity in library screen, Exp 2 (DPP4; [5]): 78; DPP4 activity in library screen, Exp 3 (DPP4; [5]): 76.9; DPP4 activity in library screen, Mean (DPP4; [6]): 82.5"
COc1ccc2cc1Oc1ccc(cc1)C[C@H]1c3cc(c(OC)cc3CCN1C)Oc1c(OC)c(OC)cc3c1[C@H](C2)N(C)CC3 [Tetrandrine],99.9,98,99.8,99.2,–
C[C@H]1CC[C@]2(NC1)O[C@H]1C[C@H]3[C@@H]4CC[C@H]5C[C@@H](O[C@@H]6O[C@H](CO)[C@H](O[C@@H]7O[C@H](CO)[C@@H](O)[C@H](O[C@@H]8OC[C@@H](O)[C@H](O)[C@H]8O)[C@H]7O[C@@H]7O[C@H](CO)[C@@H](O)[C@H](O)[C@H]7O)[C@H](O)[C@H]6O)CC[C@]5(C)[C@H]4CC[C@]3(C)[C@H]1[C@@H]2C [Tomatine],103,91.8,124,106,–
"CC(C)[C@]12O[C@H]1[C@@H]1O[C@]13[C@]1(O[C@H]1C[C@H]1C4=C(CC[C@@]13C)C(=O)OC4)[C@@H]2O [Triptolide (PG490), Triptolide]",–,–,–,–,remaining activity at 10 µM (DPP4; [7]): 98.7%; remaining activity at 10 µM (DPP4; [8]): 94.9%; remaining activity at 10 µM (DPP4; [9]): 109%; remaining activity at 10 µM (DPP4; [10]): 101%
C[C@@H]1O[C@@H](OC[C@H]2O[C@@H](Oc3c(-c4ccc(OCCO)c(OCCO)c4)oc4cc(OCCO)cc(O)c4c3=O)[C@H](O)[C@@H](O)[C@@H]2O)[C@H](O)[C@H](O)[C@H]1O [Troxerutin],69.8,62.2,57.2,63.1,–
C[C@H]1[C@H](C)CC[C@]2(C(=O)O)CC[C@]3(C)C(=CC[C@@H]4[C@@]5(C)CC[C@H](O)C(C)(C)[C@@H]5CC[C@]43C)[C@H]12 [Ursolic Acid],85.1,78.9,89.1,84.4,–
COc1cc(C=O)ccc1O [Vanillin],105,95.3,51.5,83.8,–
COc1cc(CCC(C)=O)ccc1O [Vanillylacetone],–,–,–,–,"DPP4 activity in library screen, Exp 1 (DPP4; [5]): 87.8; DPP4 activity in library screen, Exp 2 (DPP4; [5]): 96.8; DPP4 activity in library screen, Exp 3 (DPP4; [5]): 79.9; DPP4 activity in library screen, Mean (DPP4; [6]): 88.2"
COc1cc(O)c(CC=C(C)C)c(O)c1C(=O)/C=C/c1ccc(O)cc1 [Xanthohumol],94.5,102,126,107,–
O=c1c2ccccc2oc2ccccc12 [Xanthone],88.9,79.9,77.7,82.2,–
COC(=O)[C@@H]1[C@H]2C[C@H]3c4[nH]c5ccccc5c4CCN3C[C@@H]2CC[C@@H]1O [Yohimbine HCl],–,–,–,–,remaining activity at 10 µM (DPP4; [7]): 92.1%; remaining activity at 10 µM (DPP4; [8]): 92.7%; remaining activity at 10 µM (DPP4; [9]): 90.1%; remaining activity at 10 µM (DPP4; [10]): 91.6%
CC[C@H](CC[C@@H](C)[C@H]1CC[C@H]2[C@@H]3CC=C4C[C@@H](O)CC[C@]4(C)[C@H]3CC[C@]12C)C(C)C [beta-sitosterol],98.6,92.3,104,98.2,–
COC12c3c(C)cc(O)c4c(=O)occ(c34)C(=O)C1C13COC(=O)c4c(O)cc(C)c(c41)C(=O)C2C3OC(C)=O (stereo not drawn) [duclauxin],–,–,–,–,"DPP4 activity in library screen, Exp 1 (DPP4; [5]): 98.3; DPP4 activity in library screen, Exp 2 (DPP4; [5]): 99.5; DPP4 activity in library screen, Exp 3 (DPP4; [5]): 163.1; DPP4 activity in library screen, Mean (DPP4; [6]): 120.3"
Methyl-Hesperidin,–,–,–,–,"DPP4 activity in library screen, Exp 1 (DPP4; [5]): 98.7; DPP4 activity in library screen, Exp 2 (DPP4; [5]): 101.2; DPP4 activity in library screen, Exp 3 (DPP4; [5]): 74.4; DPP4 activity in library screen, Mean (DPP4; [6]): 91.4"
Myricitrin,–,–,–,–,"DPP4 activity in library screen, Exp 1 (DPP4; [5]): 67; DPP4 activity in library screen, Exp 2 (DPP4; [5]): 70.2; DPP4 activity in library screen, Exp 3 (DPP4; [5]): 70.2; DPP4 activity in library screen, Mean (DPP4; [6]): 69.1"
xenoclauxin,–,–,–,–,"DPP4 activity in library screen, Exp 1 (DPP4; [5]): 105.6; DPP4 activity in library screen, Exp 2 (DPP4; [5]): 107.6; DPP4 activity in library screen, Exp 3 (DPP4; [5]): 132.5; DPP4 activity in library screen, Mean (DPP4; [6]): 115.2"
